What was measured:
Assay in all cases: Weeding effect in post-emergence stage
Format in all cases: in vivo
Eleusine indica = details: for Weeding effect in post-emergence stage, Eleusine indica: level of fresh weight growth control rate; for Weeding effect in post-emergence stage, Eleusine indica (level): fresh weight control rate level
Summary of the method: (§1)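 Pot-grown weeds were sprayed at the 2-3 leaf stage, 2 weeks after sowing, with compound in acetone plus Tween 80 and 1.5 liter/ha methyl oleate emulsifiable concentrate, diluted in water. Doses were 500, 250, 125, 60, 30, 15, 7.5 g/ha. Growth control was scored after 3 weeks in greenhouse; mean of three replicates.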

Abutilon theophrasti = details: for Weeding effect in post-emergence stage, Abutilon theophrasti: level of fresh weight growth control rate; for Weeding effect in post-emergence stage, Abutilon theophrasti (level): fresh weight control rate level
Summary of the method: as §1

Alopecurus japonicus = details: for Weeding effect in post-emergence stage, Alopecurus japonicus: level of fresh weight growth control rate; for Weeding effect in post-emergence stage, Alopecurus japonicus (level): fresh weight control rate level
Summary of the method: as §1

Setaria viridis = details: for Weeding effect in post-emergence stage, Setaria viridis: level of fresh weight growth control rate; for Weeding effect in post-emergence stage, Setaria viridis (level): fresh weight control rate level
Summary of the method: as §1

Digitaria sanguinalis = details: for Weeding effect in post-emergence stage, Digitaria sanguinalis: level of fresh weight growth control rate; for Weeding effect in post-emergence stage, Digitaria sanguinalis (level): fresh weight control rate level
Summary of the method: as §1

Echinochloa crusgalli = details: for Weeding effect in post-emergence stage, Echinochloa crusgalli: level of fresh weight growth control rate; for Weeding effect in post-emergence stage, Echinochloa crusgalli (level): fresh weight control rate level
Summary of the method: as §1

| SMILES | Weeding effect in post-emergence stage, Eleusine indica (Eleusine indica; Dose 15 g/ha) | Weeding effect in post-emergence stage, Abutilon theophrasti (Abutilon theophrasti; Dose 15 g/ha) | Weeding effect in post-emergence stage, Alopecurus japonicus (Alopecurus japonicus; Dose 15 g/ha) | Weeding effect in post-emergence stage, Setaria viridis (Setaria viridis; Dose 15 g/ha) | Weeding effect in post-emergence stage, Digitaria sanguinalis (Digitaria sanguinalis; Dose 15 g/ha) | Weeding effect in post-emergence stage, Echinochloa crusgalli (Echinochloa crusgalli; Dose 15 g/ha) | Weeding effect in post-emergence stage, Eleusine indica (level) (Eleusine indica; Dose 15 g/ha) | Weeding effect in post-emergence stage, Abutilon theophrasti (level) (Abutilon theophrasti; Dose 15 g/ha) | Weeding effect in post-emergence stage, Alopecurus japonicus (level) (Alopecurus japonicus; Dose 15 g/ha) | Weeding effect in post-emergence stage, Setaria viridis (level) (Setaria viridis; Dose 15 g/ha) | Weeding effect in post-emergence stage, Digitaria sanguinalis (level) (Digitaria sanguinalis; Dose 15 g/ha) | Weeding effect in post-emergence stage, Echinochloa crusgalli (level) (Echinochloa crusgalli; Dose 15 g/ha) | also measured |
| --- | --- | --- | --- | --- | --- | --- | --- | --- | --- | --- | --- | --- | --- |
| CCOC(=O)C(C)O/N=C/c1cc(-n2c(=O)n(C)c(=S)n(C)c2=O)c(F)cc1C(F)(F)F (racemic) [Compound 86] | 5 (Level 5: growth control rate is above 85%) | 5 (Level 5: growth control rate is above 85%) | 3 (Level 3: growth control rate is greater than or equal to 40% and less than 60%) | 4 (Level 4: growth control rate is greater than or equal to 60% and less than 85%) | 3 (Level 3: growth control rate is greater than or equal to 40% and less than 60%) | 4 (Level 4: growth control rate is greater than or equal to 60% and less than 85%) | – | – | – | – | – | – | – |
| CSCOC(=O)C(C)O/N=C/c1cc(-n2c(=O)cc(C(F)(F)F)n(C)c2=O)c(F)cc1Cl (stereo not drawn) [Compound 233] | 5 (Level 5: growth control rate is above 85%) | 5 (Level 5: growth control rate is above 85%) | 5 (Level 5: growth control rate is above 85%) | 5 (Level 5: growth control rate is above 85%) | 5 (Level 5: growth control rate is above 85%) | 5 (Level 5: growth control rate is above 85%) | – | – | – | – | – | – | – |
| C#CCCOC(=O)[C@@H](C)O/N=C/c1cc(-n2c(=O)cc(C(F)(F)F)n(C)c2=O)c(F)cc1Cl [442(R)] | – | – | – | – | – | – | 5 (Level 5: growth control rate is above 85%) | 5 (Level 5: growth control rate is above 85%) | 5 (Level 5: growth control rate is above 85%) | 5 (Level 5: growth control rate is above 85%) | 5 (Level 5: growth control rate is above 85%) | 5 (Level 5: growth control rate is above 85%) | – |
| CC(O/N=C/c1cc(-n2c(=O)cc(C(F)(F)F)n(C)c2=O)c(F)cc1Cl)C(=O)OCC1CCCO1 (stereo not drawn) [Compound 264] | 5 (Level 5: growth control rate is above 85%) | 5 (Level 5: growth control rate is above 85%) | 5 (Level 5: growth control rate is above 85%) | 5 (Level 5: growth control rate is above 85%) | 5 (Level 5: growth control rate is above 85%) | 5 (Level 5: growth control rate is above 85%) | – | – | – | – | – | – | – |
| C#CCCOC(=O)C(C)O/N=C/c1cc(-n2c(=O)cc(C(F)(F)F)n(C)c2=O)c(F)cc1Cl (stereo not drawn) [Compound 442] | – | – | – | – | – | – | 5 (Level 5: growth control rate is above 85%) | 5 (Level 5: growth control rate is above 85%) | 5 (Level 5: growth control rate is above 85%) | 5 (Level 5: growth control rate is above 85%) | 5 (Level 5: growth control rate is above 85%) | 5 (Level 5: growth control rate is above 85%) | – |
| C[C@@H](O/N=C/c1cc(-n2c(=O)cc(C(F)(F)F)n(C)c2=O)c(F)cc1Cl)C(=O)NS(=O)(=O)CCl [503(R)] | – | – | – | – | – | – | 5 (Level 5: growth control rate is above 85%) | 5 (Level 5: growth control rate is above 85%) | 5 (Level 5: growth control rate is above 85%) | 5 (Level 5: growth control rate is above 85%) | 5 (Level 5: growth control rate is above 85%) | 5 (Level 5: growth control rate is above 85%) | – |
| COC(=O)CCCO/N=C/c1cc(-n2c(=O)cc(C(F)(F)F)n(C)c2=O)c(F)cc1Cl [Compound 485] | – | – | – | – | – | – | 5 (Level 5: growth control rate is above 85%) | 5 (Level 5: growth control rate is above 85%) | 5 (Level 5: growth control rate is above 85%) | 5 (Level 5: growth control rate is above 85%) | 5 (Level 5: growth control rate is above 85%) | 5 (Level 5: growth control rate is above 85%) | – |
| CC(O/N=C/c1cc(-n2c(=O)cc(C(F)(F)F)n(C)c2=O)c(F)cc1Cl)C(=O)ON1C(=O)CCC1=O (stereo not drawn) [Compound 263] | – | – | – | – | – | – | – | – | – | – | – | – | Weeding effect in post-emergence stage, Eleusine indica (Eleusine indica; Dose 60 g/ha): 5 (Level 5: growth control rate is above 85%); Weeding effect in post-emergence stage, Abutilon theophrasti (Abutilon theophrasti; Dose 60 g/ha): 5 (Level 5: growth control rate is above 85%); Weeding effect in post-emergence stage, Alopecurus japonicus (Alopecurus japonicus; Dose 60 g/ha): 5 (Level 5: growth control rate is above 85%); Weeding effect in post-emergence stage, Setaria viridis (Setaria viridis; Dose 60 g/ha): 5 (Level 5: growth control rate is above 85%); Weeding effect in post-emergence stage, Digitaria sanguinalis (Digitaria sanguinalis; Dose 60 g/ha): 5 (Level 5: growth control rate is above 85%); Weeding effect in post-emergence stage, Echinochloa crusgalli (Echinochloa crusgalli; Dose 60 g/ha): 5 (Level 5: growth control rate is above 85%) |
| C[C@@H](O/N=C/c1cc(-n2c(=O)cc(C(F)(F)F)n(C)c2=O)c(F)cc1Cl)C(=O)OCCO [228(R)] | 5 (Level 5: growth control rate is above 85%) | 5 (Level 5: growth control rate is above 85%) | 5 (Level 5: growth control rate is above 85%) | 5 (Level 5: growth control rate is above 85%) | 5 (Level 5: growth control rate is above 85%) | 5 (Level 5: growth control rate is above 85%) | – | – | – | – | – | – | – |
| CCOC(=O)[C@@H](C)O/N=C/c1cc(-n2c(=O)n(C)c(=S)n(C)c2=S)c(F)cc1Br [161(R)] | 5 (Level 5: growth control rate is above 85%) | 5 (Level 5: growth control rate is above 85%) | 4 (Level 4: growth control rate is greater than or equal to 60% and less than 85%) | 5 (Level 5: growth control rate is above 85%) | 4 (Level 4: growth control rate is greater than or equal to 60% and less than 85%) | 5 (Level 5: growth control rate is above 85%) | – | – | – | – | – | – | – |
| C/C(=N\OC(=O)[C@@H](C)O/N=C/c1cc(-n2c(=O)cc(C(F)(F)F)n(C)c2=O)c(F)cc1Cl)C(C)(C)C [449(R)] | – | – | – | – | – | – | 5 (Level 5: growth control rate is above 85%) | 5 (Level 5: growth control rate is above 85%) | 5 (Level 5: growth control rate is above 85%) | 5 (Level 5: growth control rate is above 85%) | 5 (Level 5: growth control rate is above 85%) | 5 (Level 5: growth control rate is above 85%) | – |
| CC(C)OC(=O)C(C)O/N=C/c1cc(-n2c(=O)cc(C(F)(F)F)n(C)c2=O)c(F)cc1Cl (racemic) [Compound 199] | 5 (Level 5: growth control rate is above 85%) | 5 (Level 5: growth control rate is above 85%) | 5 (Level 5: growth control rate is above 85%) | 5 (Level 5: growth control rate is above 85%) | 5 (Level 5: growth control rate is above 85%) | 5 (Level 5: growth control rate is above 85%) | – | – | – | – | – | – | – |
| COC(=O)[C@@H](CC1CC1)O/N=C/c1cc(-n2c(=O)cc(C(F)(F)F)n(C)c2=O)c(F)cc1Cl [462(R)] | – | – | – | – | – | – | 5 (Level 5: growth control rate is above 85%) | 5 (Level 5: growth control rate is above 85%) | 5 (Level 5: growth control rate is above 85%) | 5 (Level 5: growth control rate is above 85%) | 5 (Level 5: growth control rate is above 85%) | 5 (Level 5: growth control rate is above 85%) | – |
| CC(C)COC(=O)C(C)O/N=C/c1cc(-n2c(=O)cc(C(F)(F)F)n(C)c2=O)c(F)cc1Cl (racemic) [Compound 201] | 5 (Level 5: growth control rate is above 85%) | 5 (Level 5: growth control rate is above 85%) | 5 (Level 5: growth control rate is above 85%) | 5 (Level 5: growth control rate is above 85%) | 5 (Level 5: growth control rate is above 85%) | 5 (Level 5: growth control rate is above 85%) | – | – | – | – | – | – | – |

Source: patent US20230111310A1, “CARBOXYLIC ACID DERIVATIVE-SUBSTITUTED IMINO ARYL COMPOUND, PREPARATION METHOD THEREFOR, HERBICIDAL COMPOSITION AND USE THEREOF” (Qingdao Kingagroot Chemical Compound Co., Ltd., priority 2020, published 2023)
